Measured values published in US20250163047A1, “HETEROCYCLIC COMPOUNDS, COMPOSITIONS THEREOF, AND METHODS OF TREATMENT THEREWITH” (BeiGene, Ltd., priority 2022, published 2025).
pIC50: −log10 of the molar value.

Tests used:
[1] = target: T1, Cbl-b (aa36-427) (Homo sapiens, UniProt Q13191); experiment: Co-expressed Cbl-b with BirA biochemical assay (CBLB/E2-Ub binding, HTRF); settings: 0.6 nM Cbl-b co-expressed with BirA, HTRF; read-out: co-express CBLB/E2-Ub-binding assay IC50
T1 construct: Cbl-b (aa36-427, in-house); made in house
Description: (§1) The assay in the absence of a Cbl-b/Cbl inhibitor, where phosphorylation of Cbl-b/Cbl by the Src kinase allows UbcH5B-Ub to bind to Cbl-b/Cbl and brings the Bodipy-Fluorescein tagged ubiquitin in proximity to the streptavidin-terbium bound to the N-terminal biotinylated Avi-tagged Cbl-b/Cbl. […] The lack of a FRET signal indicates Cbl-b/Cbl is inhibited by the Cbl-b/Cbl inhibitor.

[2] = target: T2, Cbl (aa49-434) (Homo sapiens, UniProt P22681); experiment: Co-expressed Cbl with BirA biochemical assay (CBL/E2-Ub binding, HTRF); settings: 0.6 nM Cbl co-expressed with BirA, read-out: co-express CBL/E2-Ub-binding assay IC50
T2 construct: Cbl (aa49-434, in-house); made in house
T2 sequence (P22681 49-434): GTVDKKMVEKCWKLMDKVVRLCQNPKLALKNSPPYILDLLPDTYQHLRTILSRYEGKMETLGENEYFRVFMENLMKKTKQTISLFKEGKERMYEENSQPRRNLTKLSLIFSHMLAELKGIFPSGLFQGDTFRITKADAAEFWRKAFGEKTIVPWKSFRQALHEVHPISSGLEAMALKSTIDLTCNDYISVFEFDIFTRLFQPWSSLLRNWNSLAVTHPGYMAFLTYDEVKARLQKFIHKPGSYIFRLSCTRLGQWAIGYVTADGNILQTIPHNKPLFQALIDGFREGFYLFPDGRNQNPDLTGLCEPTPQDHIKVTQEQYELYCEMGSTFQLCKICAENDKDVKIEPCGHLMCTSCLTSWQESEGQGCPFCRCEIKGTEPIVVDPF
Description: as §1

T1 sequence (Q13191 36-427): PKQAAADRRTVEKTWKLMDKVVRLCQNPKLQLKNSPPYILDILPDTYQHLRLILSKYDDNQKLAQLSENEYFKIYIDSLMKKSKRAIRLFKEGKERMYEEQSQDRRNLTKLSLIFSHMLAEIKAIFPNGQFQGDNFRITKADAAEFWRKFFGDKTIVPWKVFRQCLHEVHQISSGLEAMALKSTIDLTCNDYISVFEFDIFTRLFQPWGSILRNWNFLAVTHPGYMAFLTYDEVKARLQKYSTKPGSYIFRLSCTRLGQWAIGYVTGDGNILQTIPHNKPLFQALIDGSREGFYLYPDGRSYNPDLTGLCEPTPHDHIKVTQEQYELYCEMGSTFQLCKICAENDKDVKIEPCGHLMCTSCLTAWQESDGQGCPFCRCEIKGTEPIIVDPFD

pIC50 [1]	pIC50 [2]	Compound
8.70	8.23	Cn1cnnc1[C@]1(c2cccc(NC(=O)c3cc(CNCC4CCC4)c4c(n3)C(C)(C)CN4)c2)C[C@H](C)C1 [Compound C49, 7-(((cyclobutylmethyl)amino)methyl)-3,3-dimethyl-N-(3-((1s, 3s)-3-methyl-1-(4-methyl-4H-1,2,4-triazol-3-yl)cyclobutyl)phenyl)-2,3-dihydro-1H-pyrrolo[3,2-b]pyridine-5-carboxamide]
8.80	8.26	Cc1c[nH]c2c(CN3CC[C@H](F)[C@H](C)C3)cc(C(=O)Nc3cccc([C@]4(c5nncn5C)C[C@@H](C)C4)c3)nc12 [Compound B34, 7-(((3R,4S)-4-fluoro-3-methylpiperidin-1-yl)methyl)-3-methyl-N-(3-((1s,3S)-3-methyl-1-(4-methyl-4H-1,2,4-triazol-3-yl)cyclobutyl)phenyl)-1H-pyrrolo[3,2-b]pyridine-5-carboxamide]
8.85	8.06	Cc1c[nH]c2c(CNC3(C)CC3)cc(C(=O)Nc3cccc([C@]4(c5nncn5C)C[C@@H](CC#N)C4)c3)nc12 [Compound B30, N-(3-((1s, 3s)-3-(cyanomethyl)-1-(4-methyl-4H-1,2,4-triazol-3-yl)cyclobutyl)phenyl)-3-methyl-7-(((1-methylcyclopropyl)amino)methyl)-1H-pyrrolo[3,2-b]pyridine-5-carboxamide]
9.00	8.68	Cn1cnnc1[C@]1(c2cncc(NC(=O)c3cc(CNCC4CCC4)c4[nH]ccc4n3)c2)C[C@H](C)C1 [Compound B40, 7-{[(cyclobutylmethyl)amino]methyl}-N-{5-[(1r, 3s)-3-methyl-1-(4-methyl-1,2,4-triazol-3-yl)cyclobutyl]pyridin-3-yl}-1H-pyrrolo[3,2-b]pyridine-5-carboxamide]
9.30	8.89	C[C@H](NCc1cc(C(=O)Nc2cccc([C@]3(c4nncn4C)C[C@@H](C)C3)c2)nc2c(F)c[nH]c12)C1CCC1 [Compound B38, 7-((((S)-1-cyclobutylethyl)amino)methyl)-3-fluoro-N-(3-((1s,3R)-3-methyl-1-(4-methyl-4H-1,2,4-triazol-3-yl)cyclobutyl)phenyl)-1H-pyrrolo[3,2-b]pyridine-5-carboxamide]
7.92	7.15	Cc1cnc2c(C(=O)Nc3cccc([C@]4(c5nncn5C)C[C@@H](CC#N)C4)c3)cc(CN3CCC[C@H](C)C3)cn12 [Compound A10, 3-methyl-6-{[(3S)-3-methylpiperidin-1-yl]methyl}-N-{3-[(1s, 3s)-3-(cyanomethyl)-1-(4-methyl-1,2,4-triazol-3-yl)cyclobutyl]phenyl}imidazo[1,2-a]pyridine-8-carboxamide]
8.80	8.51	C[C@H](NCc1cc(C(=O)Nc2cccc([C@]3(c4nncn4C)C[C@@H](C)C3)c2)c2nccn2c1)C1CCCC1 [Compound A40, 6-((((S)-1-cyclopentylethyl)amino)methyl)-N-(3-((1s,3R)-3-methyl-1-(4-methyl-4H-1,2,4-triazol-3-yl)cyclobutyl)phenyl)imidazo[1,2-a]pyridine-8-carboxamide]
8.74	8.33	CC(C)CNCc1cc(C(=O)Nc2cncc([C@]3(c4nncn4C)C[C@@H](C)C3)c2)nc2cc[nH]c12 [Compound B2, 7-((isobutylamino)methyl)-N-(5-((1s, 3s)-3-methyl-1-(4-methyl-4H-1,2,4-triazol-3-yl)cyclobutyl)pyridin-3-yl)-1H-pyrrolo[3,2-b]pyridine-5-carboxamide]
9.10	8.06	Cn1cnnc1[C@]1(c2cccc(NC(=O)c3cc(CNC4(C)CCC4)c4ccsc4n3)c2)C[C@H](CC#N)C1 [Compound B39, 4-{[(1-methylcyclobutyl)amino]methyl}-N-{3-[(1s, 3s)-3-(cyanomethyl)-1-(4-methyl-1,2,4-triazol-3-yl)cyclobutyl]phenyl}thieno[2,3-b]pyridine-6-carboxamide]
9.15	8.89	C[C@H](NCc1cc(C(=O)Nc2cccc([C@]3(c4nncn4C)C[C@@H](CC#N)C3)c2)c2nccn2c1)C1CCCC1 [Compound A31, N-(3-((1s,3R)-3-(cyanomethyl)-1-(4-methyl-4H-1,2,4-triazol-3-yl)cyclobutyl)phenyl)-6-((((S)-1-cyclopentylethyl)amino)methyl)imidazo[1,2-a]pyridine-8-carboxamide]
8.57	7.89	Cc1cnc2c(C(=O)Nc3cncc([C@]4(c5nncn5C)C[C@@H](C)C4)c3)cc(CN[C@H]3C[C@@H](C)C3)cn12 [Compound A86, 3-methyl-N-(5-((1s, 3s)-3-methyl-1-(4-methyl-4H-1,2,4-triazol-3-yl)cyclobutyl)pyridin-3-yl)-6-((((1s, 3s)-3-methylcyclobutyl)amino)methyl)imidazo[1,2-a]pyridine-8-carboxamide]

Second part, the compound before the results:

Compound	pIC50 [1]	pIC50 [2]
C[C@H]1CCCN(Cc2cc(C(=O)Nc3cccc([C@]4(c5nncn5C)C[C@@H](CC#N)C4)c3)nc3c2OCC3(C)C)C1 [Compound C10, 3,3-dimethyl-7-{[(3S)-3-methylpiperidin-1-yl]methyl}-N-{3-[(1s, 3s)-3-(cyanomethyl)-1-(4-methyl-1,2,4-triazol-3-yl)cyclobutyl]phenyl}-2H-furo[3,2-b]pyridine-5-carboxamide]	8.64	7.58
Cn1cnnc1[C@]1(c2cccc(NC(=O)c3cc(CNC4(C)CC4)cc4c(F)cnn34)c2)C[C@H](C)C1 [Compound A92, 3-fluoro-N-(3-((1s, 3s)-3-methyl-1-(4-methyl-4H-1,2,4-triazol-3-yl)cyclobutyl)phenyl)-5-(((1-methylcyclopropyl)amino)methyl)pyrazolo[1,5-a]pyridine-7-carboxamide]	9.40	8.60
CC(C)CNCc1cc(C(=O)Nc2cccc([C@]3(c4nncn4C)C[C@@H](C)C3)c2)c2ncc(F)n2c1 [Compound A62, 3-fluoro-6-((isobutylamino)methyl)-N-(3-((1s, 3s)-3-methyl-1-(4-methyl-4H-1,2,4-triazol-3-yl)cyclobutyl)phenyl)imidazo[1,2-a]pyridine-8-carboxamide]	8.96	8.15
Cn1cnnc1C[C@]1(c2cccc(NC(=O)c3cc(CNC4(C)CC4)c4c(n3)C(C)(C)CN4)c2)C[C@H](C#N)C1 [Compound C44, 3,3-dimethyl-7-{[(1-methylcyclopropyl)amino]methyl}-N-{3-[(1r, 3r)-3-cyano-1-[(4-methyl-1,2,4-triazol-3-yl)methyl]cyclobutyl]phenyl}-1H,2H-pyrrolo[3,2-b]pyridine-5-carboxamide]	8.82	8.48
C[C@H](NCc1cc(C(=O)Nc2cccc([C@]3(c4nncn4C)C[C@@H](C)C3)c2)c2nccn2c1)C1CCC1 [Compound A70, 6-((((S)-1-cyclobutylethyl)amino)methyl)-N-(3-((1s,3R)-3-methyl-1-(4-methyl-4H-1,2,4-triazol-3-yl)cyclobutyl)phenyl)imidazo[1,2-a]pyridine-8-carboxamide]	8.96	8.39
C[C@H](NCc1cc(C(=O)Nc2cncc([C@]3(c4nncn4C)C[C@@H](C)C3)c2)c2ncc(Cl)n2c1)C1CC1 [Compound A77, 3-chloro-6-((((S)-1-cyclopropylethyl)amino)methyl)-N-(5-((1s,3R)-3-methyl-1-(4-methyl-4H-1,2,4-triazol-3-yl)cyclobutyl)pyridin-3-yl)imidazo[1,2-a]pyridine-8-carboxamide]	9.40	8.92
[2H]C([2H])([2H])n1cnnc1[C@]1(c2cccc(NC(=O)c3cc(CNC4(C)CC4)cn4ccnc34)c2)C[C@H](C)C1 [Compound A95, N-(3-((1s, 3s)-3-methyl-1-(4-(methyl-d3)-4H-1,2,4-triazol-3-yl)cyclobutyl)phenyl)-6-(((1-methylcyclopropyl)amino)methyl)imidazo[1,2-a]pyridine-8-carboxamide]	9.15	8.47
C[C@H]1CCCN(Cc2cc(C(=O)Nc3cccc([C@]4(Cc5nncn5C)C[C@H](C#N)C4)c3)nc3c2CCC3(C)C)C1 [Compound C18, N-(3-((1s,3R)-3-cyano-1-((4-methyl-4H-1,2,4-triazol-3-yl)methyl)cyclobutyl)phenyl)-7,7-dimethyl-4-(((S)-3-methylpiperidin-1-yl)methyl)-6,7-dihydro-5H-cyclopenta[b]pyridine-2-carboxamide]	8.85	8.51
C[C@H](NCc1cc(C(=O)Nc2cccc([C@]3(c4nncn4C)C[C@@H](CC#N)C3)c2)nc2cc[nH]c12)C1CCC1 [Compound B31, N-(3-((1s,3R)-3-(cyanomethyl)-1-(4-methyl-4H-1,2,4-triazol-3-yl)cyclobutyl)phenyl)-7-((((S)-1-cyclobutylethyl)amino)methyl)-1H-pyrrolo[3,2-b]pyridine-5-carboxamide]	9.10	9.15
